From US20240418717A1, “APPARATUS AND METHOD FOR ANALYZING PLATELET AGGREGATION” (MEDTRONIC VASCULAR, INC., priority 2020, published 2024)

Key:
[1] = tested on: platelet poor plasma; assay: Platelet aggregation by washer (disk) minimum position in platelet poor plasma; type: cell-based; settings: platelet poor plasma containing 1.5 U/mL heparin; 20 micromolar ADP; FIG. 9
Description: Platelet poor plasma […] containing 1.5 U/mL heparin was filled into a six-channel cartridge similar to cartridge 200 depicted in and described regarding FIG. 7 for use with a blood analyzer similar to analyzer 300 depicted and described regarding FIG. 6. The analyzer and cartridge were similar to those described in U.S. Pat. Nos. 5,629,209 and 6,613,286. A chamber of the cartridge contained ADP such that the concentration in the chamber was 20 micromolar after introduction of the sample. No other clot enhancing agent was in the sample or chamber of the cartridge. The chambers included a ferromagnetic washer. Following introduction of the sample after the cartridge was inserted into the blood analyzer, the test was started, and platelet aggregation was analyzed. The blood analyzer was programmed to hold the washer (disk) at the top of the chamber for 90 to 95% of the test cycle (a test cycle is the time sum of lift time and drop time), which was about 4.5 seconds for a test cycle of 5 seconds, to ensure platelets in the test sample aggregated and accumulated at the bottom of the chamber. The washer was allowed to drop (electromagnet deactivated), and the washer minimum position was determined.

[2] = tested on: platelets in platelet rich plasma (PRP); assay: Platelet aggregation by washer (disk) minimum position in platelet rich plasma; type: cell-based; settings: platelet rich plasma containing 1.5 U/mL heparin; 20 micromolar ADP; relative to absence of ADP; FIG. 8
Description: Platelet rich plasma (PRP) containing 1.5 U/mL heparin was filled into a six-channel cartridge similar to cartridge 200 depicted in and described regarding FIG. 7 for use with an analyzer similar to analyzer 300 depicted in and described regarding FIG. 6. The analyzer and cartridge were similar to those described in U.S. Pat. Nos. 5,629,209 and 6,613,286.
One chamber of the cartridge contained ADP such that the concentration in the chamber was 20 micromolar after introduction of the sample. Another chamber included no ADP. No other clot enhancing agent was in the sample or chamber of the cartridge. The chambers included a ferromagnetic washer. The cartridge was inserted in the analyzer before PRP sample fill. Immediately after the sample introduction, the test began, and platelet aggregation was analyzed.
The analyzer was programmed to hold the washer (disk) at the top of the chamber for 90 to 95% of the test cycle (a test cycle is the time sum of lift time and drop time), which was about 4.5 seconds for a test cycle of 5 seconds, to ensure platelets in the test sample aggregated and accumulated at the bottom of the chamber. The washer was allowed to drop (electromagnet deactivated), and the washer minimum position was determined by the proximity sensor (e.g., sensor 30 depicted in and described regarding FIGS. 2-5) in the presence and absence of ADP.

Structure (SMILES): Nc1ncnc2c1ncn2[C@@H]1O[C@H](COP(=O)(O)OP(=O)(O)O)[C@@H](O)[C@H]1O [ADP, adenosine diphosphate]
- disk minimal position (platelet aggregation) [1]: did not increase
- washer (disk) minimum position (platelet aggregation) [2]: increased
